Assay results from patent US12325709B2, “Cannabinoid derivatives” (CANOPY GROWTH CORPORATION, priority 2019, dated 2025).

Legend:
[1] = target: T1, human CB1 receptor (Homo sapiens, UniProt P21554); assay: CB1 radioligand competitive binding assay ([3H]CP 55,940 displacement)
T1 construct: host or cells: CHO-K1 (Chinese hamster ovary) cells, stably transfected; membranes prepared in house

[2] = target: T2, human CB2 receptor (Homo sapiens, UniProt P34972); assay: CB2 radioligand competitive binding assay ([3H]CP 55,940 displacement); details: for Selectivity CB2: fold difference in binding between CB1 and CB2, shown in column of receptor with higher affinity, 1.00 in both = about the same affinity
T2 construct: host or cells: CHO-K1 (Chinese hamster ovary) cells, stably transfected; membranes prepared in house
Procedure: Compounds of the present disclosure were tested for CB1 receptor binding affinity and for CB2 receptor binding affinity. As used herein, “binding affinity” is represented by the IC50 value, which was experimentally determined as described herein. The lower the IC50 value the higher the binding affinity.
The membranes were prepared from CHO-K1 (Chinese hamster ovary) cells stably transfected with the human CB2 receptor (Cat. #ES-111-C; Perkin Elmer, Boston, MA). The cells were grown adherently and maintained in Ham's F12 medium containing 10% fetal bovine serum (FBS), penicillin, streptomycin and geneticin (G418) at 37° C. in a humid atmosphere of 5% CO2 following the manufacturer's instructions.
For membrane preparation the cells were washed with PBS and scraped off the plates in cold homogenization buffer (25 mM HEPES (pH 7.4), 2 mM EDTA) containing protease inhibitor cocktail (Sigma Cat. #P8340). The cell suspension was homogenized with a Pro-PK-01200D Polytron Homogenizer (Pro Scientific) and then centrifuged for 30 min at 120,000×g. The supernatant was discarded and the pellet was re-suspended in the homogenization buffer and stored at −80° C. until the time of use.
In this experiment, 3H radiolabeled CP 55,940, i.e. [3H]CP 55,940 (Perkin Elmer, Boston, MA), was used as a radioligand for the CB2 receptor to determine the binding affinity of compounds for the CB2 receptor (Scheme 3; above).
The competition binding experiments (single dose and dose-response) were performed by incubating 0.6 nM of [3H]CP55,940 (specific activity 101 Ci/mmol, Perkin Elmer) and different concentrations of compounds disclosed herein with membranes prepared as above from CHO-K1 cells expressing human CB2 receptor (1 μg of protein/well), 50 mM Tris-HCl (pH 7.4), 5 mM MgCl2, 1 mM CaCl2, and 2 mg/mL BSA.
For the dose-response experiments the test compounds were sequentially diluted to provide the desired concentration range for the IC50 determination. In each case the compounds were pre-incubated with the membrane for 20 min, before adding the radioligand.
After incubation with the radioligand for 60 min at 37° C., the incubation was terminated by rapid filtration of assay mixture through MultiScreen®HTS^+ 96-well filter plates (Millipore, Cat. #MSFCNXB), pre-soaked for 60 min with 50 mM Tris-HCl (pH 7.4) containing 0.33% polyethylenimine (PEI). The nonspecific binding (NSB) was determined in the presence of 10 μM unlabelled CP55,940. After drying the filter plate at 50° C. for at least 60 min, the filter-bound radioactivity was determined by scintillation spectrometry using the 1450 MicroBeta Plate Counter (Perkin Elmer, Boston, MA).

T1 sequence (P21554 whole entry): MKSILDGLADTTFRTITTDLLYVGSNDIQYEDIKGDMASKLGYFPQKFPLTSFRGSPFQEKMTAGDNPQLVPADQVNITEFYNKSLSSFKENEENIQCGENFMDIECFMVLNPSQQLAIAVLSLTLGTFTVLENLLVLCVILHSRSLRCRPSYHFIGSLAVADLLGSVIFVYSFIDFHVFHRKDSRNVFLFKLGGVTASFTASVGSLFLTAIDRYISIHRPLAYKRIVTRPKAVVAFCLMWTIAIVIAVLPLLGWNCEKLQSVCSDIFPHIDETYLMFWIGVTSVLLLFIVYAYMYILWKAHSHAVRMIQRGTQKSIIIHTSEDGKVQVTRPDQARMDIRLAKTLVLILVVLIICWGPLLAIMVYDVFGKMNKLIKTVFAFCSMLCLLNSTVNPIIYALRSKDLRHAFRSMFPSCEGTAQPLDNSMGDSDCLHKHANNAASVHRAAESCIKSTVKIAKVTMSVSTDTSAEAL
T2 sequence (P34972 whole entry): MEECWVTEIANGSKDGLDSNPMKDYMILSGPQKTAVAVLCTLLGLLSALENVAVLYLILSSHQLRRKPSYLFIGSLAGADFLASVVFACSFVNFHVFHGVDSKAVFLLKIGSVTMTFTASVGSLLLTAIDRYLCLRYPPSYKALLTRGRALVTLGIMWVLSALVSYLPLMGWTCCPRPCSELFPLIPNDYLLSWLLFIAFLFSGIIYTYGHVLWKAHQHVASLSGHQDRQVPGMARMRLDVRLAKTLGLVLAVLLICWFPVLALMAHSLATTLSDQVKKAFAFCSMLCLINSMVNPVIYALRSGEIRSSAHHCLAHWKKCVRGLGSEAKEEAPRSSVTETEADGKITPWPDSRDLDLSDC

Row | SMILES | IC50 [1] [nM] | IC50 [2] [nM] | Selectivity CB2 [2] [fold]
1 | CCCCCc1cc(O)c(C2C=C(C)CCC2)c(O)c1C(N)=O (stereo not drawn) [Compound 58c, 2,6-dihydroxy-5′-methyl-4-pentyl-1′,2′,3′,4′-tetrahydro-[1,1′-biphenyl]-3-carboxamide] | > 5000 | 1000 to 4990 | 11.83
2 | CCCCCc1cc(O)c(-c2cccc(C)c2)c(O)c1CN(C)C(=O)OC [Compound 59a, methyl ((2,6-dihydroxy-3′-methyl-4-pentyl-[1,1′-biphenyl]-3-yl)methyl)(methyl)carbamate] | 100 to 990 | < 100 | 10.91
3 | CCCCCc1cc(O)c(C2C=C(C)CCC2)c(O)c1CN(C)C(=O)OC (stereo not drawn) [Compound 59c, methyl ((2,6-dihydroxy-5′-methyl-4-pentyl-1′,2′,3′,4′-tetrahydro-[1,1′-biphenyl]-3-yl)methyl)(methyl)carbamate] | 100 to 990 | < 100 | 9.26
4 | C=C(C)[C@@H]1CCC(C)=C[C@H]1c1c(O)cc(CCC)c(C(=O)NC)c1O [Compound 96d, 2,6-dihydroxy-N,5′-dimethyl-2′-(prop-1-en-2-yl)-4-propyl-1′,2′,3′,4′-tetrahydro-[1,1′-biphenyl]-3-carboxamide] | > 5000 | > 5000 | 2.59
